Experimental data as given in patent publication US11952328B2, “Selective ship inhibitors for treating disease” (THE RESEARCH FOUNDATION FOR THE STATE UNIVERSITY OF NEW YORK, priority 2018, dated 2024).

What was measured:
[1] = test system: RMA-Rael cells; experiment: Overall survival of RMA-Rael tumor challenged hosts (Kaplan-Meier); type: in vivo, mice; details: C57BL/6 hosts, 1×10^5 RMA-Rael
Protocol: FIGS. 6A-6I show the survival of tumor bearing mice treated with a SHIP inhibitor. […] Hosts were treated on the day of tumor challenge and the following day as in FIG. 1. The 2-day treatment course was repeated each week for the duration of survival. […] Mice received either NK cell depleting, anti-NK1.1 antibody (PK136), or isotype control antibody prior to tumor challenge (5×10^5 RMA-Rael). The hosts received SHIP inhibitor two consecutive days each week until death. […] The hosts were treated on the day of tumor challenge and the following day as in FIG. 1. The 2-day treatment course was repeated each week for the duration of survival.
The most clinically relevant endpoint in any cancer therapy study is not a measured decrease in tumor burden, but instead, a significant increase in survival promoted by the treatment.
In order to further define 3AC′s capacity to control malignancy through immunomodulatory effects the capacity of 3AC to promote resistance of NSG, TcRa^−/− and NK cell depleted hosts to RMA-Rael tumor challenge was examined. As before, mice received treatment with 3AC or vehicle for two consecutive days each week followed by a five-day cessation of treatment to prevent disarming and/or exhaustion. This treatment strategy was continued indefinitely and survival was monitored (FIG. 6A). To confirm that, in addition to the chemotherapeutic effect documented in FIG. 5, 3AC-induced enhanced-NK and -T cell activity is important for the survival benefit following tumor challenge, NSG mice (mice deficient of all lymphocyte lineages) were challenged.
To determine if T cells are required for the 3AC-mediated survival benefit, the same expirement using TcRa^−/− hosts that lack a TcR-ab^+ T cell compartment was repeated. […] To directly test the requirement for an intact NK cell compartment for 3AC-mediated increased survival after tumor challenge, the experiment as described in FIG. 6A were repeated challenging C57BL/6 hosts that were first depleted of
NK cells. Here, prior to tumor challenge, hosts were injected with either NK cell depleting anti-NK1.1 antibody (C57BL/6-DNK) or with antibody isotype control (C57BL/6-iso) (FIG. 6B).
The SHIP1 inhibitor 3AC was then tested in a genetic model in which the molecular target, SHIP1, was absent in a key target population of T cells, which are required for protection in the RMA-Rael lymphoma challenge model. […] Thus, SHIP inhibitor protection after tumor challenge is lost when the T cell compartment lacks the molecular target (SHIP1) in T cells.
There are two paralogs of SHIP: SHIP1 which is expressed in a limited range of tissues including hematopoietic cells, and SHIP2 which is expressed by a wide array of cell types. To determine if SHIP2 may also play a role in host defense against malignancy as described above tumor bearing mice were treated with small-molecule inhibitors against SHIP2 as well. […] Stem Cells. (2015); 33: 848-858; Hoekstra, E. et al., Lipid phosphatase SHIP2 functions as oncogene in colorectal cancer by regulating PKB activation. Oncotarget. (2016) 7: 73525-73540). Like 3AC, pan-SHIP1/2 inhibitors such as K118 are also cytotoxic for RMA-Rael cells in vitro. The pan SHIP1/2 inhibitory compounds K118 and K149 were compared to the SHIP1 selective compound 3AC.
Simultaneous inhibition of both SHIP1and SHIP2 may be deleterious to the immune response promoted by 3AC. […] In the study, the SHIP1 selective inhibitor 3AC that provides for protection after RMA-Rael challenge was simulataneously co-administered.

[2] = biological target: T1, SHIP2 (Homo sapiens, UniProt O15357); details: Suwa et al. 2009; cited from earlier work
T1 sequence (O15357 1-1258): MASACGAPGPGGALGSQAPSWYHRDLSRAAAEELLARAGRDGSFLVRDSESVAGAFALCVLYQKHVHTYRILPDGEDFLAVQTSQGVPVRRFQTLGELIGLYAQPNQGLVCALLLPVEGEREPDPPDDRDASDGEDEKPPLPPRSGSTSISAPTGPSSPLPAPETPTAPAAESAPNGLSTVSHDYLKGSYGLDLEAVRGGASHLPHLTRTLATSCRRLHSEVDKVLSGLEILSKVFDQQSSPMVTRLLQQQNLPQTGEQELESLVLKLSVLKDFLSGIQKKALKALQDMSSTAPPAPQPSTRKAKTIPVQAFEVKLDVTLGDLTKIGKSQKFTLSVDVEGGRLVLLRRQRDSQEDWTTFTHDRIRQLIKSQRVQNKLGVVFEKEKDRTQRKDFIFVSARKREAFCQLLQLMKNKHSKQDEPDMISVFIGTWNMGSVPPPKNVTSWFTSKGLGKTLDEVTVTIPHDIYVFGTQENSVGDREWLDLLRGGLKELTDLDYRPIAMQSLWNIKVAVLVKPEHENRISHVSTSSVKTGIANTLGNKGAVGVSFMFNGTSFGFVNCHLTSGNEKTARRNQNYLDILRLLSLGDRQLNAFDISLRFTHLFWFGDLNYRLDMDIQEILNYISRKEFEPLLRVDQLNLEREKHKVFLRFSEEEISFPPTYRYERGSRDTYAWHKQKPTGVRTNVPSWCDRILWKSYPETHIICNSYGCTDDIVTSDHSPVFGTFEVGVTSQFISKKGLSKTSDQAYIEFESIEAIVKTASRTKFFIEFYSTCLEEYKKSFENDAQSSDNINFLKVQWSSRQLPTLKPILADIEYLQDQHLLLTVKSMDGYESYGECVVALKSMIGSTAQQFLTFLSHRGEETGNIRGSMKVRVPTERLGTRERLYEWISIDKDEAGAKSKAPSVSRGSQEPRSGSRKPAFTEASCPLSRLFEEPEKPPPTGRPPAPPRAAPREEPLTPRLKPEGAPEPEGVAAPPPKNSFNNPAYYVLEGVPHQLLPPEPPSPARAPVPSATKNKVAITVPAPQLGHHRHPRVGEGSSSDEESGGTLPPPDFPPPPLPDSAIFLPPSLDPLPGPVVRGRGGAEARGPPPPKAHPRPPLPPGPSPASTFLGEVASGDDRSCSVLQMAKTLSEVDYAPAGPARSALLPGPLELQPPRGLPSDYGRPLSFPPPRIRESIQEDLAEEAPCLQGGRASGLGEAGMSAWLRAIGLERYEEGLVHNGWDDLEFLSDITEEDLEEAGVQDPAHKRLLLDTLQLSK

[3] = test system: SHIP1/2; details: Brooks et al. 2015; Hoekstra et al. 2016; cited from earlier work
[4] = test system: RMA-Rael cells; experiment: RMA-Rael viability following in vitro treatment; type: cell-based, mice; details: 24 h, doses given as 5-20 pM, vs solvent only
Description: FIGS. 5A-5I show the effects of SHIP1 inhibitor as a chemotherapeutic. […] FIG. 5D and FIG. 5E show the representative histograms and box-and-whisker plots of FasL expression by NK cells from C56BL/6 (p=0.0002; Unpaired t test with Welch's correction) or RAG1−/− (p<0.0001; Mann-Whitney U test) tumor challenged, SHIP inhibitor or vehicle treated hosts. […] (NK cells p=0.0192; Unpaired t test with Welch's correction. T cells p=0.0659; Mann-Whitney U test). Additionally, FIGS. 5A-5G show the analysis by flow cytometry on day 3 after hosts receive SHIP inhibitor or vehicle for two consecutive days. NK cells are defined as NK1.1+CD3ε−. The graphs are representative of at least two independent experiments with at least four SHIP inhibitor and vehicle treated mice. […] Viability is expressed as frequency at a given concentration expressed as a percentage of solvent only treated cells. The kill curve summarizes pooled data from three independent experiments using six replicate wells/concentration with mean ±SEM indicated (n=18 per group. One-way ANOVA with Dunnett's multiple comparisons. 0 pM vs. 20 pM Adjusted p value =0.0001. 0 pM vs. 15 pM Adjusted p value =0.0001. 0 pM vs. 10 pM Adjusted p value =0.0001. 0 pM vs. 7.5 pM Adjusted p value =0.0001. 0 pM vs. 5 pM Adjusted p value =0.0001). […]

SMILES: C[C@H](NC(=O)c1sccc1OCc1ccc(Cl)cc1)c1ccccc1 [AS1949490]
- overall survival (protection) ([1]; FIG. 6I, alone vs vehicle): no protection
- overall survival (effect on protection by 3AC) ([1]; FIG. 6I, co-administered with 3AC): completely abrogated the protective effect of 3AC
- selectivity for SHIP2 [2]: high degree of selectivity

SMILES: C[C@@]12CCC[C@H]1[C@@H]1CC[C@H]3C[C@@H](N)CC[C@]3(C)[C@H]1CC2.Cl [Compound K118, 3β-amino-5α-androstane hydrochloride]
- overall survival (protection) ([1]; FIG. 6H, vs vehicle): no protection
- SHIP1/2 inhibitory activity [3]: pan-SHIP1/2 inhibitory activity
- RMA-Rael viability (direct killing) [4]: cytotoxic

SMILES: CSc1ccc2c(c1)c(CCN)c(C)n2Cc1ccc(Cl)cc1.Cl [Compound K149, 2-[1-(4-chlorobenzyl)-2-methyl-5-(methylmercapto)-1H-3-yl] ethanaminium chloride]
- overall survival (protection) ([1]; FIG. 6H, vs vehicle): no protection
- SHIP1/2 inhibitory activity [3]: pan-SHIP1/2 inhibitory activity
